We go through 35 compounds from article PMC11995724, “Antibiotic target discovery by integrated phenotypic and activity-based profiling of electrophilic fragments” (Cell chemical biology, 2025).

The nature of the data set: in vitro. Conditions: human, hek293t cells.
Regarding `C=CC(=O)N1CCC(C(=O)Nc2cccc(N3CCCC3=O)c2)CC1` [2-H04, N-[3-(2-oxopyrrolidin-1-yl)phenyl]-1-(prop-2-enoyl)piperidine-4-carboxamide], the viability (as a rule, a read-out of living cells in per cent, often relative to untreated cells) at 48 h, 25 µM was determined as 84.3%.

As to `C=CC(=O)N1CCC(C(=O)NCCC2CCS(=O)(=O)C2)CC1` (centres unmarked) [2-H05, N-[2-(1,1-dioxo-1lambda6-thiolan-3-yl)ethyl]-1-(prop-2-enoyl)piperidine-4-carboxamide], the viability at 48 h, 25 µM stood at 78.2%.

As to `C=CC(=O)NCc1nonc1C` [2-H07, N-[(4-methyl-1,2,5-oxadiazol-3-yl)methyl]prop-2-enamide], the viability at 48 h, 25 µM worked out at 57.6%.

Turning to `C=CC(=O)N(CC)CC(=O)N1CCc2c(ncn2CC)C1` [2-H08, N-ethyl-N-(2-{1-ethyl-1H,4H,5H,6H,7H-imidazo[4,5-c]pyridin-5-yl}-2-oxoethyl)prop-2-enamide], the viability at 48 h, 25 µM is 84.8%.

For `C=CC(=O)N1CCC(C(=O)N2CCC(CC(=O)N(C)C)CC2)CC1` [2-H09, N,N-dimethyl-2-{1-[1-(prop-2-enoyl)piperidine-4-carbonyl]piperidin-4-yl}acetamide], the viability at 48 h, 25 µM was 61.5%.

Consider `C=CC(=O)N1CCC(C(=O)Nc2cnn(COC)c2)CC1` [2-H10, N-[1-(methoxymethyl)-1H-pyrazol-4-yl]-1-(prop-2-enoyl)piperidine-4-carboxamide], for which the viability at 48 h, 25 µM was found to be 79%.

Consider `C=CC(=O)N(C)Cc1nnc(C2CC2)n1C` [2-H11, N-[(5-cyclopropyl-4-methyl-4H-1,2,4-triazol-3-yl)methyl]-N-methylprop-2-enamide], for which the viability at 48 h, 25 µM came out at 72.8%.

For the compound `C=CC(=O)N1CCC(C(=O)Nc2ccn(CC(=O)N(C)C)n2)CC1` [2-H12, N-{1-[(dimethylcarbamoyl)methyl]-1H-pyrazol-3-yl}-1-(prop-2-enoyl)piperidine-4-carboxamide], the viability at 48 h, 25 µM worked out at 71%.

Turning to `C=CC(=O)NC(C)c1ccc(Oc2ccccc2)c(F)c1` (centres unmarked) [2-H13, N-[1-(3-fluoro-4-phenoxyphenyl)ethyl]prop-2-enamide], the viability at 48 h, 25 µM is 68.8%.

In the case of `C=CC(=O)N1CCC(C(=O)N2CCC(C(C)(C)O)CC2)CC1` [2-H14, 1-{4-[4-(2-hydroxypropan-2-yl)piperidine-1-carbonyl]piperidin-1-yl}prop-2-en-1-one], the viability at 48 h, 25 µM was determined as 60.8%.

In the case of `C=CC(=O)NCCC1COCCO1` (centres unmarked) [2-H15, N-[2-(1,4-dioxan-2-yl)ethyl]prop-2-enamide], the viability at 48 h, 25 µM was 74.3%.

`C=CC(=O)N1CCC(C)C1` (centres unmarked) [2-H17, 1-(3-methylpyrrolidin-1-yl)prop-2-en-1-one]: the viability at 48 h, 25 µM is 71.5%.

In the case of `C=CC(=O)N1CCC(C(=O)N2CCC(NC(=O)NC)CC2)CC1` [2-H18, 3-methyl-1-{1-[1-(prop-2-enoyl)piperidine-4-carbonyl]piperidin-4-yl}urea], the viability at 48 h, 25 µM stood at 83%.

For `C=CC(=O)NC(C(N)=O)c1ccccc1F` (centres unmarked) [2-H19, N-[carbamoyl(2-fluorophenyl)methyl]prop-2-enamide], the viability at 48 h, 25 µM was 51.9%.

As for `C=CC(=O)N(C)CC(=O)N1CCC(c2nc(-c3ccccc3)n[nH]2)CC1` [2-H20, N-methyl-N-{2-oxo-2-[4-(3-phenyl-1H-1,2,4-triazol-5-yl)piperidin-1-yl]ethyl}prop-2-enamide], the viability at 48 h, 25 µM amounted to 67.6%.

Regarding `C=CC(=O)N1CC[C@H](NS(C)(=O)=O)C1` [2-H21, N-[(3S)-1-(prop-2-enoyl)pyrrolidin-3-yl]methanesulfonamide], the viability at 48 h, 25 µM came out at 60.7%.

For `C=CC(=O)Nc1cc(NC(=O)[C@H]2C[C@@H](C(C)=O)C2(C)C)ccc1F` [2-H22, (1S,3R)-3-acetyl-N-[4-fluoro-3-(prop-2-enamido)phenyl]-2,2-dimethylcyclobutane-1-carboxamide], the viability at 48 h, 25 µM turned out to be 97.4%.

With `C=CC(=O)N1CC(c2ncon2)C1` [2-I03, 1-[3-(1,2,4-oxadiazol-3-yl)azetidin-1-yl]prop-2-en-1-one], the viability at 48 h, 25 µM came to 181%.

In the case of `C=CC(=O)N1CCC(C(=O)N2CCn3ccnc32)CC1` [2-I04, 1-(4-{1H,2H,3H-[1,3]diazolo[1,2-a]imidazole-1-carbonyl}piperidin-1-yl)prop-2-en-1-one], the viability at 48 h, 25 µM came out at 99.3%.

On to `C=CC(=O)NCCN1CCOCC1C` (centres unmarked) [2-I05, N-[2-(3-methylmorpholin-4-yl)ethyl]prop-2-enamide], for which the viability at 48 h, 25 µM came out at 79.2%.

Turning to `C=CC(=O)N1CCC(c2nnnn2C)CC1` [2-I06, 1-[4-(1-methyl-1H-1,2,3,4-tetrazol-5-yl)piperidin-1-yl]prop-2-en-1-one], the viability at 48 h, 25 µM came to 95.6%.

`C=CC(=O)N1CCOC(c2ccccc2)C1` (centres unmarked) [2-I07, 1-(2-phenylmorpholin-4-yl)prop-2-en-1-one]: the viability at 48 h, 25 µM was 118%.

For the compound `C=CC(=O)N(CC1CCOCC1)C1CC1` [2-I08, N-cyclopropyl-N-[(oxan-4-yl)methyl]prop-2-enamide], the viability at 48 h, 25 µM was 88%.

Regarding `C=CC(=O)NC[C@@H]1C[C@H](F)CN1Cc1csc(C)n1` [2-I09, N-{[(2S,4S)-4-fluoro-1-[(2-methyl-1,3-thiazol-4-yl)methyl]pyrrolidin-2-yl]methyl}prop-2-enamide], the viability at 48 h, 25 µM worked out at 192%.

Take `C=CC(=O)N1CCC(c2cnn(C)c2)CC1` [2-I10, 1-[4-(1-methyl-1H-pyrazol-4-yl)piperidin-1-yl]prop-2-en-1-one]: the viability at 48 h, 25 µM stood at 83.2%.

As for `C=CC(=O)NC(C)c1nnnn1-c1ccccc1` (centres unmarked) [2-I11, N-[1-(1-phenyl-1H-1,2,3,4-tetrazol-5-yl)ethyl]prop-2-enamide], the viability at 48 h, 25 µM came to 196%.

Turning to `C=CC(=O)NCCNC(=O)c1c(C)cc(C)nc1C` [2-I12, N-{2-[(2,4,6-trimethylpyridin-3-yl)formamido]ethyl}prop-2-enamide], the viability at 48 h, 25 µM is 104%.

Regarding `C=CC(=O)NCc1cn(-c2ccccc2)nn1` [2-I13, N-[(1-phenyl-1H-1,2,3-triazol-4-yl)methyl]prop-2-enamide], the viability at 48 h, 25 µM came out at 76.1%.

For `C=CC(=O)N1CCC(C(=O)N(C)Cc2ccon2)CC1` [2-I14, N-methyl-N-[(1,2-oxazol-3-yl)methyl]-1-(prop-2-enoyl)piperidine-4-carboxamide], the viability at 48 h, 25 µM is 90.3%.

Regarding `C=CC(=O)N1CCC(c2ccnn2C)CC1` [2-I15, 1-[4-(1-methyl-1H-pyrazol-5-yl)piperidin-1-yl]prop-2-en-1-one], the viability at 48 h, 25 µM came to 96.5%.

Turning to `C=CC(=O)NC1CC2(CCC(C(=O)O)CC2)C1` (centres unmarked) [2-I16, 2-(prop-2-enamido)spiro[3.5]nonane-7-carboxylic acid], the viability at 48 h, 25 µM was found to be 92.8%.

For `C=CC(=O)NC(c1nc(C)cs1)C(F)(F)F` (centres unmarked) [2-I17, N-[2,2,2-trifluoro-1-(4-methyl-1,3-thiazol-2-yl)ethyl]prop-2-enamide], the viability at 48 h, 25 µM is 102%.

With `C=CC(=O)Nc1cccc(C(=O)C(C)(C)C)c1` [2-I18, N-[3-(2,2-dimethylpropanoyl)phenyl]prop-2-enamide], the viability at 48 h, 25 µM worked out at 105%.

With `C=CC(=O)N1CC2(CCCC2)CC1CO` (centres unmarked) [2-I19, 1-[3-(hydroxymethyl)-2-azaspiro[4.4]nonan-2-yl]prop-2-en-1-one], the viability at 48 h, 25 µM is 82.4%.

As to `C=CC(=O)N(C)CC(=O)NCc1c(O)nnc(C)c1C` [2-I20, N-({[(3-hydroxy-5,6-dimethylpyridazin-4-yl)methyl]carbamoyl}methyl)-N-methylprop-2-enamide], the viability at 48 h, 25 µM was found to be 91.6%.
